Test results as given in patent US20200347347A1, “COMPOSITIONS AND METHODS FOR IMPROVED GAMETE VIABILITY AND FUNCTION” (Premium Genetics [UK] Ltd., priority 2017, published 2020).

What was measured:
sperm cells [1] = assay: Outgoing quality control: progressively motile cells per straw after freeze-thaw; format: cell-based, bovine; conditions: NaF 0-6 mM in SVFEM
Experimental: After 90 minutes of equilibration at 4° C. the samples were cryoprotected by adding TRIS B (which contains glycerol) to a final concentration of 20% v/v of sample in 3 separate additions, 15 minutes apart. The concentration of progressively motile cells was determined using the Hamilton Thorne IVOS II with HTCasa Animal Breeders II software set to the same capture settings listed above, but with a Xenon light source and an Olympus 10× UplanSApo objective. The cryoprotected sample was diluted to final live, motile cell concentration, 2.5 M/mL, in Packaging Extender and placed in Mini Straws which hold 0.25 mL volume (IMV technologies, Maple Grove, Minn. USA) using an MX4 straw filling and sealing machine (IMV technologies, Maple Grove, Minn. USA). Filled straws were rapidly cooled using a freeze tunnel before storage in liquid nitrogen.
Outgoing Quality Control Assessment: To assess the number of motile cells that survived the freezing process a single straw is thawed in a 37° C. water bath for 45 seconds. The straw is then plunged into a pre-warmed Eppendorf tube. The sample is then gently vortexed 10 seconds to homogenize the sample. After which 20 μLs of sample is added to 20 μLs of QC diluent, gently vortexed for 5 seconds, and read on the CASA fluorescent settings described above.

sperm cells [2] = assay: Progressive motility of extended ejaculate stored at 19° C. (CASA); format: cell-based, bovine; conditions: SVFEM supplemented with 3 mM NaF normalized to 0 mM NaF; 24 hours; N=8
Experimental: Progressive motile % was determined using a CASA system. N=10 paired ejaculates.
Ejaculate extension and Incoming Quality Assessment: The volume of the ejaculate was determined using a serological pipette and evenly divided into two tubes. Immediately, within 15 minutes, the SVFEM extender was added in a 1:1 ratio to the SVFEM extended half of the split ejaculate. […] On arrival, GTLS antibiotic solution was added at a 2% v/v of ejaculate.
Within 45 minutes of initial ejaculate collection, the cell concentration and incoming motility parameters were collected. Concentration was determined using a Nucleocounter SP-100™ with Reagent S100 and SP100 cassettes (ChemoMetec Allerod, Denmark). Motility characteristics were calculated by diluting 10 μL sample in 990 μL motility diluent and reading 7 frames each in 2 chambers of Leja 4 chamber capillary slides with a known chamber depth on a Hamilton Thorne IVOS II using HTCasa II software at 60 Hz frame capture speed in a 37° C. enclosed stage with a Zeiss 1× objective.

sperm cells [3] = assay: Motility of semen samples after 24-hour storage in media (Examples 4-7, 10, 11); format: cell-based, Angus bull; conditions: Example 10; samples stored for 24 hours
Experimental: Semen sample creation: The media of Example 1 is mixed with semen in a 1:1 volume ratio. Optimal performance is seen when the media was warmed to 37° C. prior to mixing with Angus bull semen, and when the media is added to semen between 10 and 30 minutes post-ejaculation. The media remains effective, however, when mixed with cells 1 hour after ejaculation. After the addition of the media, cells are stored at 19° C. […] In FIG. 33 p=0.017, in a paired t-test. […] Semen samples from Angus bulls (n=4) were taken and tested at the collection, then after storing in the media of Example 1 (SVFEM) for 24 hours. […] Another test was performed to compare samples after 24-hour storage. Semen samples from Angus bulls (n=10) were taken and combined with media. Samples using the inventive media SVFEM were compared to control samples using conventional media. Samples were analyzed to determine whether motility of cells was lost due to storage.

| Molecule | number of motile cells which survive a freeze/thaw after 24 hours' extension (sperm cells [1]) | fall of % progressive motile cells after staining below paired SVFEM group (sperm cells [2]) | effect of eliminating the ingredient from SVFEM on motility (sperm cells [3]) |
| --- | --- | --- | --- |
| [F-].[Na+] [NaF, sodium fluoride] | improved efficacy | at least 20% | – |
| phosphatidylserine [PS] | – | – | drop in motility |
